Test results as given in patent publication US12486265B2, “2-aminopyrimidine compounds and pharmaceutical compositions and uses thereof” (Shanghai Zhimeng Biopharma, Inc., priority 2019, dated 2025).
Where two headings read alike, the source gives them in different places.

Columns and labels:
[1] = Cell activity detection (Celltiter-Glo) in HEK-Blue hTLR8 cells; format: cell-based; details: human
Protocol: (§1) [drawing 45] per well; • (2) HEK-Blue™ hTLR7/8 cells were digested separately, counted, and the cells at 5.0×10^4 cells per well were added to a 96-well cell culture plate containing compounds; (3) The cells added with the compound were placed in a 5% CO2 incubator at 37° C. for 24 hours; • (4) Compound activity detection: took 20 µl/well cell culture supernatant and added it to 96-well plate containing 180 μl QUANTI-BLUE™ reagent. Incubated at 37° C. for one hour, and the optical density absorption value (OD650) at 650 nm was detected with a multifunctional microplate reader; • (5) Cell activity detection: operated according to the Celltiter-Glo instructions, and the chemiluminescence signal (RLU) was detected by a multifunctional microplate reader Envision; • (6) Data analysis: • Compound activity: OD650 value was analyzed by GraphPad Prism software, and the dose effect curve of the compound was fitted to calculate the EC50 value of the compound.
(§2) Cell activity detection: cell activity was analyzed by GraphPad Prism software, and the dose effect curve of the compound was fitted to calculate the CC50 value of the compound to the cell.

[2] = Liver-blood ratio study in male SD rats; format: in vivo; details: rat, liver / plasma, single oral administration; for Kp at 1 h: time point 1 h; for Kp at 4 h: time point 4 h
Protocol: Liver-blood ratio study: 4 healthy male SD rats (SPF grade) were divided into 2 groups and 2 rats/group. After fasting overnight, compound A and compound X were administrated orally respectively. Blood was taken through cardiac puncture at time points 1 and 4 hours, at least 0.5 mL of whole blood was collected to EDTA-K2 anticoagulant tube, and plasma was taken after centrifugation (6000 rpm, 8 minutes, 4° C.) within half an hour and frozen at −20° C. for later use. At the same time, liver tissue was collected, rinsed with normal saline, then blotted dry with absorbent paper, weighed, and frozen at −20° C. for later use.

[3] = Pharmacokinetic study in male SD rats; format: in vivo; details: rat, plasma
Protocol: Pharmacokinetic study: 6 healthy male SD rats (SPF grade) were divided into 2 groups and 3 rats/group. […] Within half an hour, plasma was taken after centrifugation (6000 rpm, 8 minutes, 4° C.) and frozen at −20° C. for later use. Experimental results: According to the obtained blood drug concentration data, the non-compartmental model of WinNonlin® 8.1 software (Certara, USA) was used to calculate the pharmacokinetic parameters after administration.

[4] = target: T1, human TLR7 (Homo sapiens, UniProt Q9NYK1); experiment: hTLR7 receptor binding activity in vitro (HEK-Blue hTLR7 SEAP reporter); format: cell-based; details: HEK-Blue hTLR7 cells, 24 hours, SEAP OD650
T1 construct: host or cells: HEK-Blue hTLR7 (HEK293-derived)
T1 sequence (Q9NYK1 27-1049): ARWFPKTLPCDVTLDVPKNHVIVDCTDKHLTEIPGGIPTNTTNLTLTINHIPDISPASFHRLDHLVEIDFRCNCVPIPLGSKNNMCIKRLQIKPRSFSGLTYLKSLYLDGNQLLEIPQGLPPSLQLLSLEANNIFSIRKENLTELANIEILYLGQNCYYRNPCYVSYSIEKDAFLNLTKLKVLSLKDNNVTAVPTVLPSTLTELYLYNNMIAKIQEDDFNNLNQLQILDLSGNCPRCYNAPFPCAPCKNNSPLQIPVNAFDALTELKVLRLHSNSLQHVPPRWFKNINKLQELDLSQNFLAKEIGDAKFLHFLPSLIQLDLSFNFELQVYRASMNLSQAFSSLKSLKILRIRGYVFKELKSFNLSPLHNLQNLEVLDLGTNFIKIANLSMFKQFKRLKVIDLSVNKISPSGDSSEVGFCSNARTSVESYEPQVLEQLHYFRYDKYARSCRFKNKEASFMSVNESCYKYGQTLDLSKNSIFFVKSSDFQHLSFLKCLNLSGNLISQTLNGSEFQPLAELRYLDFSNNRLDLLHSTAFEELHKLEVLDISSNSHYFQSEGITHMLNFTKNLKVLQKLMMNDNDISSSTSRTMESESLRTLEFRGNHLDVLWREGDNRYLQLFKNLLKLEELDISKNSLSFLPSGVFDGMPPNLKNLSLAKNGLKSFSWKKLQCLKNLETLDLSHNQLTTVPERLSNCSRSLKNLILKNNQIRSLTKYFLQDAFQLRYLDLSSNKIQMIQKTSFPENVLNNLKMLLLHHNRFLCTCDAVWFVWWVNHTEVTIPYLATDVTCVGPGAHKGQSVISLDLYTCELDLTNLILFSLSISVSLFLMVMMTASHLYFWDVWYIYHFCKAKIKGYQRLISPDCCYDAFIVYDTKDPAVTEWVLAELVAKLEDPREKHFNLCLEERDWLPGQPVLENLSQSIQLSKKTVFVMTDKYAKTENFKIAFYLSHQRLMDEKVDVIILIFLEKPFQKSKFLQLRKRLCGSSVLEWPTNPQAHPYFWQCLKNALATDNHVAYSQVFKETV
Protocol: (§3) The ability of the compounds of the present invention to activate TLR7 and TLR8 respectively was evaluated by using receptor binding experiments in vitro.
(§4) HEK-Blue™ hTLR7 (article number: hkb-htlr7) and HEK-Blue™ hTLR8 (article number: hkb-htlr8) cells were purchased from InvivoGen company. HEK-Blue™ hTLR7/8 cells can indicate the activation of TLR7/8 by detecting the activation level of NF-κB signaling pathway. HEK-Blue™ hTLR7/8 cells are derived from human embryonic kidney 293 cells, stably expressing human TLR7 or human TLR8, respectively, and can induce expression of secretory alkaline phosphatase (SEAP) to report gene system. The expression of SEAP reporter gene is regulated by IFN-β simplified promoter, which is composed of 5 NF-κB binding sequences and AP-1 binding sequences. Therefore, when TLR7/8 is activated in these two cells, NF-κB and AP-1 will be activated, and SEAP expression and extracellular secretion will be induced. By detecting the activity of SEAP outside the cell, the activation level of TLR7/8 can be indicated.
(§5) • (1) The compound was added to the cell culture plate after a 3-fold gradient dilution, with a total of 10 concentrations, with two duplicates wells for each concentration.
as §1

[5] = tested on: IL-12p40 in human PBMC; experiment: IL-12p40 induction in human PBMC (ELISA); format: cell-based
Excerpt: The human peripheral blood mononuclear cell (PBMC) experiment and the IL-12p40 ELISA detection method are used to detect the IL-12p40 inducing activity of the compound of the present invention in human PBMC.
Toll-like receptors (TLRs) are a series of switches that regulate the human immune system and occupy an important position in both innate (non-specific) and specific immunity. TLR8 is mainly expressed in monocytes, macrophages and myeloid dendritic cells. TLR8 is expressed on the Endosome intima of the cell and recognizes single-stranded RNA with high GU (guanylate/uridonic acid) content. After TLR8 signaling pathway is activated, it will activate the secretion of a series of downstream cytokines (IL-12, TNF-alpha, IFN-gamma, etc.), causing antiviral immune response. In this experiment, the compound was used to stimulate human PBMC, and the level of IL-12p40 protein in the culture supernatant was detected to evaluate the activation level of the compound on the TLR8 signaling pathway.
• (1) The compound was added to the cell plate after a 3-fold gradient dilution, with a total of 8 concentrations, and two duplicate wells for each concentration.
(§6) Resuspended, cell number was counted, and the cell suspension was adjusted to 2.5×10^6 cells/ml with the culture medium.

[6] = Cell activity detection (Celltiter-Glo) in human PBMC; format: cell-based
Protocol: as §6, §2

[7] = target: T2, human TLR8 (Homo sapiens, UniProt Q9NR97); experiment: hTLR8 receptor binding activity in vitro (HEK-Blue hTLR8 SEAP reporter); format: cell-based; details: for EC50: HEK-Blue hTLR8 cells, 24 hours, SEAP OD650; for selectivity for TLR8 activation: TLR8 versus TLR7, compared with compound X
T2 construct: host or cells: HEK-Blue hTLR8 (HEK293-derived)
T2 sequence (Q9NR97 27-1041): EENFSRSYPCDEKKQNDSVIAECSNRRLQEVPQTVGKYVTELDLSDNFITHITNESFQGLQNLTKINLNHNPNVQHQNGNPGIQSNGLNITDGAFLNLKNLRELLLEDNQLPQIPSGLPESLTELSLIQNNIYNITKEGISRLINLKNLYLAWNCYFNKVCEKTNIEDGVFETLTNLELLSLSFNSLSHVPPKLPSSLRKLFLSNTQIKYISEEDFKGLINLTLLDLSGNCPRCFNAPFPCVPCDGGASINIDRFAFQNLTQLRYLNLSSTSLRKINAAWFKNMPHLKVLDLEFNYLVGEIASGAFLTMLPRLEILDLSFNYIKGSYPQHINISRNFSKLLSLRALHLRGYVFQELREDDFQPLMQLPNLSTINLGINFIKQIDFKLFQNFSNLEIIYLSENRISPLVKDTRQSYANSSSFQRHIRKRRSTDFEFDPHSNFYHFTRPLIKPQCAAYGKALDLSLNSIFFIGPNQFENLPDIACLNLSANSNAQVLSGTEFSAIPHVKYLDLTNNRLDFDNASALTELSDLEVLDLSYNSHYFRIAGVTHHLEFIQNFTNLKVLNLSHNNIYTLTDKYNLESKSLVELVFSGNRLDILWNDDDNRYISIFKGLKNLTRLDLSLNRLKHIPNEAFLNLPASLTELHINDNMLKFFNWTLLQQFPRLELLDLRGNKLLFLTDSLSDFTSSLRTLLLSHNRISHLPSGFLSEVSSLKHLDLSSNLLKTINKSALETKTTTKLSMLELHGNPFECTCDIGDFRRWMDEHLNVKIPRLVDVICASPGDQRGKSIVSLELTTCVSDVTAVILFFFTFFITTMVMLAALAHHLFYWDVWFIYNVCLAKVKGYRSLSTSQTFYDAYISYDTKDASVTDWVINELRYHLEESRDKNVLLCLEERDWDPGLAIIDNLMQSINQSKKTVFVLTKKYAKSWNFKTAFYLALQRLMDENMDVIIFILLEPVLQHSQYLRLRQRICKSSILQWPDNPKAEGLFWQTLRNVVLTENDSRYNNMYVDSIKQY
Protocol: as §3, §4, §5, §1

[8] = 24 hours, Celltiter-Glo, read-out: CC50
[9] = read-out: cytotoxic CC50 on human PBMC
[10] = human PBMC, 24 hours, ELISA OD450, read-out: IL-12p40 EC50

## CCCC[C@](C)(CNC(C)=O)Nc1nc(N)nc2cc(C(=O)N(C)C)cnc12 [Compound A]
[1]
  CC50 at 24 h: > 33 µM
[2]
  Kp at 1 h: 12.3
  Kp at 4 h: 34.4
[3]; IV 5 mg/kg
  AUC(0-inf): 877 ng·h/mL
  AUC(0-t): 876 ng·h/mL
  Cmax: 1830 ng/mL
  MRT last: 22.8 min
  Tmax: 4.98 min
  clearance: 95 mL/min/kg
  half-life: 40.8 min
[3]; IV 5 mg/kg, read-out: Vz
  Vd: 5.59 L/kg
[3]; PO 50 mg/kg
  AUC(0-inf): 1260 ng·h/mL
  AUC(0-t): 1250 ng·h/mL
  Cmax: 1170 ng/mL
  MRT last: 116 min
  Tmax: 25.2 min
  bioavailability: 14.2%
  half-life: 345 min
[4]
  EC50: > 33 µM
[5]; Homo sapiens, PBMC, 24 h, read-out: IL-12p40 EC50
  EC50: 0.031 µM
[5]; Homo sapiens, PBMC, read-out: induced activity EC50 on IL-12p40
  EC50: 0.031 µM
[6]; [8]
  CC50 at 24 h: > 33 µM
[6]; [9]
  CC50 at 24 h: > 10 µM

## CCCC[C@](C)(CNC(C)=O)Nc1nc(N)nc2cc(NC3CC3)cnc12 [Compound B]
[1]
  CC50 at 24 h: > 33 µM
[4]
  EC50: 28.4 µM
[7]
  EC50: 0.029 µM
  selectivity for TLR8 activation: higher selectivity for TLR8 activation than compound X
[5]; [10]
  EC50: 0.02 µM
[5]; human PBMC, read-out: induced activity EC50 on IL-12p40
  EC50: 0.02 µM
[6]; [8]
  CC50 at 24 h: 28.9 µM
[6]; [9]
  CC50 at 24 h: > 10 µM

## CCOCc1nc2c(N)nc3ccccc3c2n1CC(C)(C)O [Compound R848, reference compound]
[1]
  CC50 at 24 h: > 71 µM
[5]; [10]
  EC50: 0.208 µM
[6]; [8]
  CC50 at 24 h: > 71 µM

## CCCC[C@](C)(CNC(C)=O)Nc1nc(N)nc2cc(C(=O)N3CC4(CCN(c5ccccc5)CC4)C3)cnc12 [Compound T]
[1]
  CC50 at 24 h: > 33 µM
[4]
  EC50: > 33 µM
[7]
  EC50: 0.207 µM

## CCCC[C@](C)(CNC(C)=O)Nc1nc(N)nc2cc(C(C)=O)cnc12 [Compound V]
[1]
  CC50 at 24 h: > 33 µM
[4]
  EC50: > 33 µM
[7]
  EC50: 0.049 µM
  selectivity for TLR8 activation: higher selectivity for TLR8 activation than compound X

## CCCC[C@](C)(CNC(C)=O)Nc1nc(N)nc2cc(CC)cnc12 [Compound X, reference compound]
[1]
  CC50 at 24 h: > 33 µM
[2]
  Kp at 1 h: 6.9
  Kp at 4 h: 23.6
[4]
  EC50: 11.9 µM
[7]
  EC50: 0.04 µM
